Test results as given in patent US8859541B2, “6-alkynylpyridines” (Boehringer Ingelheim International GmbH, priority 2012, dated 2014).

Molecular target: T1, XIAP BIR3 (Homo sapiens, UniProt P98170)
T1 construct: covering amino acids 241 to 356; XIAP BIR3; made in house; host or cells: E. coli
Experiment: XIAP BIR3 binding assay (DELFIA), displacement of SMAC peptide
Conditions: GST-fusion BIR3 domain (aa 241 to 356) 10 nM, SMAC peptide 10 nM; activity of the (S)-isomers
In short: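 Each BIR3 domain (10 nM) incubated with biotinylated N-terminal SMAC peptide (10 nM) and compound for 1 h at room temp in Tris/NaCl buffer with BSA, DTT and Triton X-100. Captured on streptavidin plates; bound BIR3 detected by Eu-labelled anti-GST time-resolved fluorescence, giving IC50 values.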

T1 sequence (P98170 241-356): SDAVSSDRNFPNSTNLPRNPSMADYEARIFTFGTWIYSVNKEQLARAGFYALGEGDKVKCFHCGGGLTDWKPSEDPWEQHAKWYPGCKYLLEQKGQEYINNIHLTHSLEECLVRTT

Work on `CCCc1ccc(NC(=O)C(C)N)nc1C#Cc1ccccc1` (stereo not shown) [Example 167, 2-amino-N-[6-(2-phenylethynyl)-5-propylpyridin-2-yl]propanamide] yielded an IC50 of 874 nM.

Compound `CCNC(CC)C(=O)Nc1ccc(-c2cncnc2)c(C#Cc2ccc3ncccc3c2)n1` (stereo not shown) [Example 169, 2-(ethylamino)-N-[5-pyrimidin-5-yl-6-(2-quinolin-6-ylethynyl)pyridin-2-yl]butanamide] has an IC50 of 1150 nM.

Work on `CCNC(CC)C(=O)Nc1ccc(-c2cncnc2)c(C#Cc2ccc3ncccc3c2)n1` (stereo not shown) [Example 170, 2-(ethylamino)-N-[5-pyrimidin-5-yl-6-(2-quinolin-6-ylethynyl)pyridin-2-yl]-butanamide] yielded an IC50 of 1370 nM.

Work on `Cc1noc(C)c1-c1ccc(NC(=O)C(C)NC(C)C)nc1C#Cc1ccccc1` (stereo not shown) [Example 171, N-[5-(3,5-dimethyl-1,2-oxazol-4-yl)-6-(2-phenylethynyl)pyridin-2-yl]-2-(propan-2-ylamino)propanamide] yielded an IC50 of 1030 nM.

`CCCNC(C)C(=O)Nc1ccc(-c2c(C)noc2C)c(C#Cc2ccccc2)n1` (stereo not shown) [Example 172, N-[5-(3,5-dimethyl-1,2-oxazol-4-yl)-6-(2-phenylethynyl)-pyridin-2-yl]-2-(propylamino)-propanamide] was tested, and the IC50 was 502 nM.

`CNC(C)C(=O)Nc1ccc(-c2c(C)ncnc2C)c(C#Cc2ccc3ccccc3c2)n1` (stereo not shown) [Example 173, N-[5-(4,6-dimethylpyrimidin-5-yl)-6-(2-naphthalen-2-ylethynyl)pyridin-2-yl]-2-(methylamino)propanamide] was tested, and the IC50 was 324 nM.

`CNC(C)C(=O)Nc1ccc(-c2ccc3c(c2)C(=O)CCC3)c(C#Cc2ccccc2)n1` (stereo not shown) [Example 178, 2-(methylamino)-N-[5-(8-oxo-6,7-dihydro-5H-naphthalen-2-yl)-6-(2-phenylethynyl)pyridin-2-yl]-propanamide] gave an IC50 of 214 nM.

Compound `CNC(C)C(=O)Nc1ccc(-c2nccc3ccccc23)c(C#Cc2ccccc2)n1` (stereo not shown) [Example 179, N-[5-isoquinolin-1-yl-6-(2-phenylethynyl)pyridin-2-yl]-2-(methylamino)propanamide] has an IC50 of 3800 nM.

Compound `CNC(C)C(=O)Nc1ccc(-c2cscc2-c2ccncc2)c(C#Cc2ccccc2)n1` (stereo not shown) [Example 180, 2-(methylamino)-N-[6-(2-phenyl-ethynyl)-5-(4-pyridin-4-ylthiophen-3-yl)pyridin-2-yl]-propanamide] has an IC50 of 260 nM.

Compound `CNC(C)C(=O)Nc1ccc(-c2ccc([N+](=O)[O-])nc2)c(C#Cc2ccccc2)n1` (stereo not shown) [Example 181, 2-(methylamino)-N-[5-(6-nitropyridin-3-yl)-6-(2-phenyl-ethynyl)pyridin-2-yl]propanamide] has an IC50 of 222 nM.

In the case of `CNC(C)C(=O)Nc1ccc(-c2ccc(C(N)=O)nc2)c(C#Cc2ccccc2)n1` (stereo not shown) [Example 183, 5-[6-[[2-(methylamino)-propanoyl]amino]-2-(2-phenyl-ethynyl)pyridin-3-yl]pyridine-2-carboxamide], the IC50 is reported as 146 nM.

Compound `CNC(C)C(=O)Nc1ccc(-c2cnoc2C)c(C#Cc2ccccc2)n1` (stereo not shown) [Example 188, 2-(methylamino)-N-[5-(5-methyl-1,2-oxazol-4-yl)-6-(2-phenyl-ethynyl)pyridin-2-yl]propanamide] has an IC50 of 128 nM.

Compound `CNC(C)C(=O)Nc1ccc(-c2cnn(C)c2-c2ccccc2)c(C#Cc2ccccc2)n1` (stereo not shown) [Example 190, 2-(methylamino)-N-[5-(1-methyl-5-phenylpyrazol-4-yl)-6-(2-phenylethynyl)pyridin-2-yl]-propanamide] has an IC50 of 276 nM.

`CNC(C)C(=O)Nc1ccc(-c2c[nH]nc2C(=O)OC)c(C#Cc2ccccc2)n1` (stereo not shown) [Example 193, methyl 4-[6-[[2-(methylamino)-propanoyl]amino]-2-(2-phenyl-ethynyl)pyridin-3-yl]-1H-pyrazole-3-carboxylate] showed an IC50 of 141 nM.

In the case of `CNC(C)C(=O)Nc1ccc(-c2c(C)ncn2Cc2ccccc2)c(C#Cc2ccccc2)n1` (stereo not shown) [Example 196, N-[5-(3-benzyl-5-methylimidazol-4-yl)-6-(2-phenylethynyl)pyridin-2-yl]-2-(methylamino)propan-amide], the IC50 is reported as 609 nM.

`CC(N)C(=O)Nc1cc(Cl)cc(C#Cc2ccccc2)n1` (stereo not shown) [Example 197, 2-amino-N-[4-chloro-6-(2-phenylethynyl)pyridin-2-yl]propanamide] showed an IC50 of 3180 nM.

Work on `CNC(C)C(=O)Nc1cc(OC)c(-c2cncnc2)c(C#Cc2ccccc2)n1` (stereo not shown) [Example 199, N-[4-methoxy-6-(2-phenyl-ethynyl)-5-pyrimidin-5-ylpyridin-2-yl]-2-(methyl-amino)propanamide] yielded an IC50 of 268 nM.

In the case of `Cc1cc(C#Cc2ccccc2)nc(NC(=O)C(C)N)c1` (stereo not shown) [Example 200, 2-amino-N-[4-methyl-6-(2-phenylethynyl)pyridin-2-yl]propanamide], the IC50 is reported as 1790 nM.

Compound `CNC(C)C(=O)Nc1cc(C(F)(F)F)c(-c2cncnc2)c(C#Cc2ccccc2)n1` (stereo not shown) [Example 201, 2-(methylamino)-N-[6-(2-phenylethynyl)-5-pyrimidin-5-yl-4-(trifluoromethyl)pyridin-2-yl]propanamide] has an IC50 of 10800 nM.

With `CNC(C)C(=O)Nc1cc(Cl)c(-c2cncnc2)c(C#Cc2ccccc2)n1` (stereo not shown) [Example 202, N-[4-chloro-6-(2-phenylethynyl)-5-pyrimidin-5-ylpyridin-2-yl]-2-(methyl-amino)propanamide] the IC50 was 483 nM.

In the case of `Cc1ccc(C#Cc2nc(NC(=O)C(C)N)cc3ccccc23)cc1` (stereo not shown) [Example 205, 2-amino-N-[1-[2-(4-methyl-phenyl)ethynyl]isoquinolin-3-yl]propanamide], the IC50 is reported as 2300 nM.

Work on `CC(N)C(=O)Nc1cc2ccccc2c(C#Cc2ccc(Cl)cc2)n1` (stereo not shown) [Example 207, 2-amino-N-[1-[2-(4-chlorophenyl)ethynyl]-isoquinolin-3-yl]propan-amide] yielded an IC50 of 4240 nM.

Compound `Cc1ccc(C#Cc2cccc(NC(=O)C(C)N)n2)cc1` (stereo not shown) [Example 209, 2-amino-N-[6-[2-(4-methylphenyl)ethynyl]pyridin-2-yl]propanamide] has an IC50 of 1460 nM.

`CC(N)C(=O)Nc1cccc(C#Cc2ccc(F)cc2F)n1` (stereo not shown) [Example 210, 2-amino-N-[6-[2-(2,4-difluorophenyl)ethynyl]pyridin-2-yl]propanamide] gave an IC50 of 2610 nM.

With `CC(N)C(=O)Nc1cccc(C#Cc2ccc(Cl)cc2)n1` (stereo not shown) [Example 211, 2-amino-N-[6-[2-(4-chlorophenyl)ethynyl]pyridin-2-yl]propanamide] the IC50 was 2010 nM.

`CC(N)C(=O)Nc1cccc(C#Cc2ccc(F)c(F)c2)n1` (stereo not shown) [Example 212, 2-amino-N-[6-[2-(3,4-difluorophenyl)ethynyl]pyridin-2-yl]propanamide] gave an IC50 of 3060 nM.

For `CC(N)C(=O)Nc1cccc(C#Cc2cccc(C(=O)OCC3CCOCC3)c2)n1` (stereo not shown) [Example 214, oxan-4-ylmethyl 3-[2-[6-[[2-aminopropanoyl]-amino]pyridin-2-yl]ethynyl]benzoate], the IC50 was 7380 nM.

Compound `CC(N)C(=O)Nc1cccc(C#Cc2ccsc2)n1` (stereo not shown) [Example 216, 2-amino-N-[6-(2-thiophen-3-ylethynyl)pyridin-2-yl]propanamide] has an IC50 of 2140 nM.

In the case of `CC(N)C(=O)Nc1cccc(C#Cc2ccncc2)n1` (stereo not shown) [Example 218, 2-amino-N-[6-(2-pyridin-4-ylethynyl)pyridin-2-yl]propanamide], the IC50 is reported as 6540 nM.

`CC(N)C(=O)Nc1cccc(C#Cc2ccc(F)cc2)n1` (stereo not shown) [Example 219, 2-amino-N-[6-[2-(4-fluorophenyl)ethynyl]pyridin-2-yl]propanamide] was tested, and the IC50 was 359 nM.

Compound `COc1cccc(C#Cc2cccc(NC(=O)C(C)N)n2)c1` (stereo not shown) [Example 220, 2-amino-N-[6-[2-(3-methoxyphenyl)ethynyl]pyridin-2-yl]propanamide] has an IC50 of 2160 nM.

`Cc1cccc(C#Cc2cccc(NC(=O)C(C)N)n2)c1` (stereo not shown) [Example 221, 2-amino-N-[6-[2-(3-methylphenyl)ethynyl]pyridin-2-yl]propanamide] was tested, and the IC50 was 222 nM.

`CC(N)C(=O)Nc1cccc(C#Cc2ccccc2Cl)n1` (stereo not shown) [Example 222, 2-amino-N-[6-[2-(2-chlorophenyl)ethynyl]pyridin-2-yl]propanamide] was tested, and the IC50 was 1420 nM.

With `CC(N)C(=O)Nc1cccc(C#CCc2ccccc2)n1` (stereo not shown) [Example 224, 2-amino-N-[6-(3-phenylprop-1-ynyl)pyridin-2-yl]propanamide] the IC50 was 3560 nM.

Work on `CC(N)C(=O)Nc1cccc(C#CC2=CCCCC2)n1` (stereo not shown) [Example 225, 2-amino-N-[6-[2-(cyclohexen-1-yl)ethynyl]pyridin-2-yl]propanamide] yielded an IC50 of 7040 nM.

For `CC(N)C(=O)Nc1cc2ccccc2c(C#Cc2cncs2)n1` (stereo not shown) [Example 227, 2-amino-N-[1-[2-(1,3-thiazol-5-yl)ethynyl]isoquinolin-3-yl]-propanamide], the IC50 was 1890 nM.

Compound `CC(N)C(=O)Nc1cccc(C#Cc2c(F)cccc2F)n1` (stereo not shown) [Example 230, 2-amino-N-[6-[2-(2,6-difluorophenyl)ethynyl]pyridin-2-yl]propanamide] has an IC50 of 2410 nM.

`CC(N)C(=O)Nc1cccc(C#Cc2cc(Cl)cc(Cl)c2)n1` (stereo not shown) [Example 231, 2-amino-N-[6-[2-(3,5-dichlorophenyl)ethynyl]pyridin-2-yl]propanamide] was tested, and the IC50 was 4860 nM.

`CC(N)C(=O)Nc1cccc(C#Cc2cc(F)cc(F)c2)n1` (stereo not shown) [Example 233, 2-amino-N-[6-[2-(3,5-difluorophenyl)ethynyl]pyridin-2-yl]propanamide] was tested, and the IC50 was 2910 nM.

With `Cc1cc(C)cc(C#Cc2cccc(NC(=O)C(C)N)n2)c1` (stereo not shown) [Example 235, 2-amino-N-[6-[2-(3,5-dimethylphenyl)ethynyl]pyridin-2-yl]propanamide] the IC50 was 2190 nM.

For `CC(N)C(=O)Nc1cccc(C#Cc2c(Cl)cccc2Cl)n1` (stereo not shown) [Example 236, 2-amino-N-[6-[2-(2,6-dichlorophenyl)ethynyl]pyridin-2-yl]propanamide], the IC50 was 1970 nM.

For `CC(N)C(=O)Nc1cccc(C#Cc2nccs2)n1` (stereo not shown) [Example 237, 2-amino-N-[6-[2-(1,3-thiazol-2-yl)ethynyl]pyridin-2-yl]propanainide], the IC50 was 5920 nM.

In the case of `CC(N)C(=O)Nc1cccc(C#Cc2cscn2)n1` (stereo not shown) [Example 238, 2-amino-N-[6-[2-(1,3-thiazol-4-yl)ethynyl]pyridin-2-yl]propanamide], the IC50 is reported as 7190 nM.
